Assay results as given in patent US20250017215A1, “LIQUID CARRIER CONCENTRATE COMPRISING AT LEAST ONE BENEFICIAL MICROORGANISM AND USES THEREOF” (priority 2021, published 2025).

How the values were obtained:
[1] = tested on: Beauveria bassiana; assay: Microbial viability of liquid carrier concentrates upon accelerated storage stability study (shelf-life), colony counting; type: cell-based; settings: storage at 25° C. without agitation
Method: (§1) Standard procedure for microbial viability assessment of liquid carrier concentrates upon accelerated storage stability study (Shelf-life assessment) In order to evaluate the shelf-life of liquid carrier concentrate of the fungi, the liquid carrier concentrates were prepared by mixing 5 wt % of a commercial product (biopesticide) containing a beneficial microorganism and 95 wt % of the solvent to be tested.
(§2) The commercial products tested were in powder form, and the beneficial microorganisms in the composition were: • Beauveria bassiana, • Paecilomyces lilacinus.
(§3) For comparison, a control experiment without the solvent was prepared. For Beauveria bassiana and Paecilomyces lilacinus, 5 wt % of the powder commercial product was added to 95 wt % soybean oil, 2-ethylhexyl lactate or isoamyl laurate.
(§4) The preparations were incubated under accelerated temperature test conditions, at 25° C. and the viability of the microorganism was evaluated after 0, 15 days, 1 month, 3 months, 6 months, 9 months, 12 months and 14 months of incubation without agitation. Trials were performed in duplicates.
(§5) To confirm that the microorganisms were viable after determined incubation/storage time, traditional serial dilution and plating of the samples for colony counting were performed.
(§6) For fungi evaluation, samples of 0.1 mL were taken from each preparation and added to 0.9 mL of an aqueous solution containing 0.1% of Tween 80 (polyoxyethylene sorbitan monooleate) to obtain a 10^−1 dilution. Then 0.1 mL of this dilution was added to 0.9 mL of the same aqueous solution successively until the most appropriate dilution was obtained (usually between 10-4 and 10-7). 0.2 mL of the most appropriate dilutions were spread into petri dishes containing the proper culture media for each microorganism and incubated (at 25° C. for Beauveria bassiana and Paecilomyces lilacinus), until the colony grew.
(§7) The number of the colonies on each petri dish was counted and the results are expressed by colony forming units (CFU)/mL.
(§8) Shelf-life assessment was done on two different fungi (Beauveria bassiana and Paecilomyces lilacinus) in Augeo SL191 solvent (formula (I), with R1, R2: methyl, and R3: H) and in three other benchmark solvents or oils according to the experimental procedures described above. For each microorganism, isoamyl laurate was tested in a different run series which explains the difference between its initial microorganism concentration (CFU/mL) and the one of the other three solvents. The recurrent colony counting was done at different incubation times: t=0, 15 days, 1 month, then every month until the CFU/mL value of a sample drops by two log 10 scale (>100 times), i.e. a reduction of 99%.

[2] = tested on: Paecilomyces lilacinus; assay: as above; type: cell-based; settings: storage at 25° C. without agitation
Method: as §1, §2, §3, §4, §5, §6, §7, §8

Row | SMILES | Viability after 14 months ([1]; 14 months) | Viability after 14 months ([2]; 14 months) | Viability after 1 month ([1]; 1 month) | Viability after 1 month ([2]; 1 month)
1 | CC1(C)OCC(CO)O1 (stereo not shown) [Augeo SL191, Solketal] | above 1E+06 CFU/mL | above 1E+06 CFU/mL | – | –
2 | CCCCC(CC)COC(=O)C(C)O (stereo not shown) [2-ethyl hexyl lactate, 2-ethylhexyl lactate] | – | – | less than 1E+05 CFU/mL | less than 1E+05 CFU/mL
